Reference: ChEMBL document CHEMBL1201862, “PubChem BioAssay data set” (2004)
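Grown in 96-well plates, cells were treated for 48 hours with each compound at five concentrations. Insufficient inhibition: endpoint recorded as highest concentration tested. GI50: concentration for 50% inhibition of growth.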 Active and inactive are the calls of the source. Cut-off read from the data, not from the text of the source: active = GI50 up to about 1.1 µM and inactive = higher.

Tests used:
Experiment in all cases: NCI-60 cell line screen, 48 h
SK-OV-3 = system: SK-OV-3
SN12C = system: SN12C
NCI-H522 = system: NCI-H522
NCI-H226 = system: NCI-H226
SNB-75 = system: SNB-75
OVCAR-5 = system: OVCAR-5
SNB-19 = system: SNB-19
DU-145 = system: DU-145
Malme-3M = system: Malme-3M
ACHN = system: ACHN
SF-539 = system: SF-539
IGROV-1 = system: IGROV-1
HT-29 = system: HT-29
SK-MEL-5 = system: SK-MEL-5
HOP-92 = system: HOP-92
786-0 = system: 786-0
UACC-257 = system: UACC-257
U-251 = system: U-251
SK-MEL-28 = system: SK-MEL-28
SR = system: SR

Measured: GI50

Fc1ccc(C(OCCN2CCC3CCC(C2)N3CCCc2ccccc2)c2ccc(F)cc2)cc1 (centres undefined)
inactive: SK-OV-3 10.4 µM | SN12C 3.57 µM | NCI-H522 3.35 µM | NCI-H226 3.94 µM | SNB-75 2.4 µM | OVCAR-5 6.71 µM | SNB-19 10.1 µM | DU-145 8 µM | Malme-3M 2.29 µM | ACHN 5.6 µM | SF-539 1.35 µM | IGROV-1 4.97 µM | HT-29 3.3 µM | SK-MEL-5 1.76 µM | HOP-92 5.45 µM | 786-0 2.41 µM | UACC-257 2.92 µM | U-251 4.33 µM | SK-MEL-28 2.52 µM

CCCCS(=O)(=O)CCC(N)C(=O)O (centres undefined)
inactive: SK-OV-3 > 100 µM | SN12C > 100 µM | NCI-H522 > 100 µM | NCI-H226 > 100 µM | SNB-75 > 100 µM | OVCAR-5 > 100 µM | SNB-19 > 100 µM | DU-145 > 100 µM | Malme-3M > 100 µM | ACHN > 100 µM | SF-539 > 100 µM | IGROV-1 > 100 µM | HT-29 > 100 µM | SK-MEL-5 > 100 µM | 786-0 > 100 µM | SR > 100 µM | UACC-257 > 100 µM | U-251 > 100 µM | SK-MEL-28 > 100 µM

Cc1nn(-c2cc(Cl)ccc2[N+](=O)[O-])c(C)c1Cl
inactive: SK-OV-3 > 100 µM | SN12C > 100 µM | NCI-H522 > 100 µM | NCI-H226 65.8 µM | SNB-75 86.5 µM | OVCAR-5 > 100 µM | SNB-19 > 100 µM | DU-145 > 100 µM | Malme-3M > 100 µM | ACHN > 100 µM | SF-539 > 100 µM | IGROV-1 > 100 µM | HT-29 > 100 µM | SK-MEL-5 81.7 µM | 786-0 > 100 µM | SR > 100 µM | UACC-257 > 100 µM | U-251 > 100 µM | SK-MEL-28 > 100 µM

Clc1cc2ncn(C3CCCCO3)c2cc1Cl (centres undefined)
inactive: SK-OV-3 > 100 µM | SN12C 99.1 µM | NCI-H522 4.7 µM | NCI-H226 17.5 µM | SNB-75 11.7 µM | OVCAR-5 > 100 µM | SNB-19 > 100 µM | DU-145 81.8 µM | Malme-3M > 100 µM | SF-539 96.4 µM | IGROV-1 20.1 µM | HT-29 35.9 µM | SK-MEL-5 38.4 µM | 786-0 71.6 µM | SR 28.1 µM | U-251 39.5 µM | SK-MEL-28 39.4 µM

Cc1[nH]c(=O)nc(NCCNCCO)c1C(=O)Nc1c2ccccc2nc2ccccc12
inactive: SK-OV-3 > 100 µM | SN12C > 100 µM | NCI-H522 > 100 µM | NCI-H226 > 100 µM | SNB-75 > 100 µM | OVCAR-5 > 100 µM | SNB-19 > 100 µM | DU-145 > 100 µM | Malme-3M > 100 µM | ACHN > 100 µM | SF-539 > 100 µM | IGROV-1 > 100 µM | HT-29 > 100 µM | SK-MEL-5 > 100 µM | HOP-92 > 100 µM | 786-0 > 100 µM | UACC-257 > 100 µM | U-251 > 100 µM | SK-MEL-28 > 100 µM

CCC(C)C(NC(=O)C(CCCC[N+](=N)N)NC(=O)C(CCCC[N+](=N)N)NC(=O)c1ccc(OC)cc1)C(=O)NC(CCCC[N+](=N)N)C(=O)N1CCCC1C(=O)NC(CCCCN)C(=O)NC(CC(C)C)C(N)=O (centres undefined)
inactive: SK-OV-3 > 100 µM | SN12C > 100 µM | NCI-H522 > 100 µM | NCI-H226 > 100 µM | SNB-75 > 100 µM | OVCAR-5 > 100 µM | SNB-19 > 100 µM | DU-145 > 100 µM | Malme-3M > 100 µM | ACHN > 100 µM | SF-539 > 100 µM | HT-29 > 100 µM | SK-MEL-5 > 100 µM | 786-0 > 100 µM | SR > 100 µM | UACC-257 > 100 µM | U-251 > 100 µM | SK-MEL-28 > 100 µM

O=c1[nH]nc(Cc2ccccc2)n1CCO
inactive: SK-OV-3 > 100 µM | SN12C > 100 µM | NCI-H522 > 100 µM | NCI-H226 > 100 µM | OVCAR-5 > 100 µM | SNB-19 > 100 µM | DU-145 > 100 µM | Malme-3M > 100 µM | ACHN > 100 µM | SF-539 > 100 µM | IGROV-1 > 100 µM | HT-29 > 100 µM | SK-MEL-5 > 100 µM | HOP-92 > 100 µM | 786-0 > 100 µM | UACC-257 > 100 µM | U-251 > 100 µM | SK-MEL-28 > 100 µM
